Measured values from patent publication US20080058309A1, “Novel Compounds 171” (ASTRAZENECA AB, priority 2006, published 2008).
Counter-ions that a name gives are not always drawn.

Assays:
P2X7 receptor = target: T1, P2X7 receptor (Homo sapiens, UniProt Q99572); assay: P2X7 receptor antagonist test: bbATP-induced ethidium bromide fluorescence in THP-1 cells; format: cell-based; details: negative logarithm of concentration reducing bbATP agonist activity by 50%, 10^-5M bbATP, 37° C. one hour
T1 construct: 200 μl of a suspension of THP-1 cells; endogenous in cells; host or cells: THP-1 cells
T1 sequence (Q99572 1-595): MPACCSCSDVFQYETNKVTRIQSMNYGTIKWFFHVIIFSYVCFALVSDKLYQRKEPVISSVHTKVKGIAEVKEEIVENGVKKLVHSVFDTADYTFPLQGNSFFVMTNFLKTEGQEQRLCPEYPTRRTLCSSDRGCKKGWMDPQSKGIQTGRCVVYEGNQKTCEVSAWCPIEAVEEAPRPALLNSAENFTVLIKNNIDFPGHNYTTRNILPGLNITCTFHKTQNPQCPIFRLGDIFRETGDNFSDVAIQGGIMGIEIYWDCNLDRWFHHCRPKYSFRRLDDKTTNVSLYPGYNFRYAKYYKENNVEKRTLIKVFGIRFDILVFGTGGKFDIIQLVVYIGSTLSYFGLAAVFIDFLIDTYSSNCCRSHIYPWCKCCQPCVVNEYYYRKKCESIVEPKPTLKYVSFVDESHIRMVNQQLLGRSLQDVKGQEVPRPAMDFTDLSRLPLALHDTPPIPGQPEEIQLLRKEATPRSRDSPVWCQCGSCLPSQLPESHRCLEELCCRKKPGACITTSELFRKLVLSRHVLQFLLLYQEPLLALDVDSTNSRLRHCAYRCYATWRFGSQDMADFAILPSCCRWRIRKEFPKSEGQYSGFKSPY
Description: Certain compounds such as benzoylbenzoyl adenosine triphosphate (bbATP) are known to be agonists of the P2X7 receptor, effecting the formation of pores in the plasma membrane (Drug Development Research (1996), 37(3), p. 126). Consequently, when the receptor is activated using bbATP in the presence of ethidium bromide (a fluorescent DNA probe), an increase in the fluorescence of intracellular DNA-bound ethidium bromide is observed. The increase in fluorescence can be used as a measure of P2X7 receptor activation and therefore to quantify the effect of a compound on the P2X7 receptor.
In this manner, each of the title compounds of the Examples was tested for antagonist activity at the P2X7 receptor. Thus, the test was performed in 96-well flat bottomed microtitre plates, the wells being filled with 250 μl of test solution comprising 200 μl of a suspension of THP-1 cells (2.5×10^6 cells/ml) containing 10^−4M ethidium bromide, 25 μl of a high potassium buffer solution containing 10^−5M bbATP, and 25 μl of the high potassium buffer solution containing concentrations of test compound typically from 30 μM-0.001 μM. The plate was covered with a plastics sheet and incubated at 37° C. for one hour. The plate was then read in a Perkin-Elmer fluorescent plate reader, excitation 520 nm, emission 595 nm, slit widths: Ex 15 nm, Em 20 nm. […]

Compound | melting point | IC50 (P2X7 receptor) [nM]
O=C(CNc1ccc(F)c(F)c1)Nc1c(Cl)ccc2nc(N3CC[C@@H](O)C3)ccc12 | 238 to 240 °C | –
CC(O)C(O)c1ccc2c(NC(=O)CNc3ccc(F)cc3)c(Cl)ccc2n1 (stereo not shown) | 135 to 138 °C | –
O=C(CNc1ccccc1Cl)Nc1c(Cl)ccc2nc(N3CC[C@@H](O)C3)ccc12 | 215 to 219 °C | –
O=C(COc1ccccc1)Nc1c(Cl)ccc2nc(N3CC[C@@H](O)C3)ccc12 | 233 to 235 °C | –
O=C(CSc1ccccc1)Nc1c(Cl)ccc2nc(N3CC[C@@H](O)C3)ccc12 [Example 6, N-[6-Chloro-2-[(3R)-3-hydroxy-1-pyrrolidinyl]-5-quinolinyl]-2-(phenylthio)-acetamide] | 246 to 249 °C | 398
N#Cc1cccc(NCC(=O)Nc2c(Cl)ccc3nc(N4CC[C@@H](O)C4)ccc23)c1 [Example 7, N-[6-Chloro-2-[(3R)-3-hydroxy-1-pyrrolidinyl]-5-quinolinyl]-2-[(3-cyanophenyl)amino]-acetamide] | – | 79.4

The next lines start with results.

melting point | Compound | IC50 (P2X7 receptor) [nM]
230 to 232 °C | O=C(CNc1ccccc1)Nc1c(Cl)ccc2nc(N3CC[C@@H](O)C3)ccc12 | –
242 to 246 °C | O=C(CNc1ccc(F)cc1)Nc1c(Cl)ccc2nc(N3CC[C@@H](O)C3)ccc12 | –
230 to 233 °C | N#Cc1ccc(NCC(=O)Nc2c(Cl)ccc3nc(N4CC[C@@H](O)C4)ccc23)cc1 | –
218 to 220 °C | O=C(CNc1cccc(F)c1)Nc1c(Cl)ccc2nc(N3CC[C@@H](O)C3)ccc12 | –
180 °C (dec.) | O=C(CNc1cccc(Cl)c1)Nc1c(Cl)ccc2nc(N3CC[C@@H](O)C3)ccc12 (as salt: hydrochloride) | –
175 °C (dec.) | O=C(CNc1ccc(Cl)cc1)Nc1c(Cl)ccc2nc(N3CC[C@@H](O)C3)ccc12 (as salt: hydrochloride) | –
